# According to patent US10149879B2 (priority 2014, dated 2018):
# What was measured:
# Type in all cases: in vivo, rats
# Insulin = Insulin secretagogues property in diabetic animals; settings: H.G. animals; standard drug
# Method: (§1) Before utilizing the test drug for human consumption the pre-clinical safety and efficacy profile of single plant candidate extract as well as in combined form was conducted following standard norms. The biological property of test formulation was validated in streptozotocin (STZ) induced diabetes animal model which also helped in evaluation of vascular complications caused due to diabetes. The effect of test drug was assessed on glucose levels, insulin level, glycosylated hemoglobin, and pro-inflammatory cytokines, and the most important bio-marker neopterin including various neuro-psychological assessments. The mechanism based study clearly indicated the neopterin decreasing potential of test formulation which exerted neuro-protective activity, better glycemic control, anti-atherosclerotic, anti-inflammatory, anti-oxidant effects in STZ induced diabetes among the animals. Further, its therapeutic activity has also been validated in neurogenic dementia and other cognitive deficits associated with diabetes mellitus.
# TBARS = assay: Attenuation of oxidative stress: TBARS formation; parameters: TBARS formation, Brain / TBARS formation, Heart / TBARS formation, Liver / TBARS formation, Kidney: unit not given here; settings: H.G. animals; standard drug
# Method: as §1, with “mellitus. Attenuation of Oxidative Stress Following Treatment with Test Formation—Reduction in TBARS Formation” for “mellitus.”
# [1] = test system: SGOT, SGPT, ALP, ACP, LDH; assay: Hepato-protective effect (SGOT, SGPT, ALP, ACP, LDH); settings: H.G. animals; standard drug
# Method: as §1, with “mellitus. Hepato-Protective Effect of Test Formulation” for “mellitus.”
# Glycogen = assay: Restoration of glycogen in liver and skeletal muscle; settings: H.G. animals; standard drug
# Method: (§2) Before utilizing the test drug for human consumption the pre-clinical safety and efficacy profile of single plant candidate extract as well as in combined form was conducted following standard norms. […] The effect of test drug was assessed on glucose levels, insulin level, glycosylated hemoglobin, and pro-inflammatory cytokines, and the most important bio-marker neopterin including various neuro-psychological assessments.
# F,1-6 bisphosphate = assay: Regulation of key enzymes in gluconeogenesis: F,1-6 bisphosphate; settings: H.G. animals; standard drug
# Method: as §1
# G-6-P = assay: Regulation of key enzymes in gluconeogenesis: G-6-P; settings: H.G. animals; standard drug
# Method: as §1
# SOD = assay: Attenuation of oxidative stress: SOD; parameters: SOD, Brain / SOD, Heart / SOD, Liver / SOD, Kidney: unit not given here; settings: H.G. animals; standard drug
# Method: as §1, with “mellitus. Attenuation of Oxidative Stress Following Treatment with Test Formulation—Restriction of SOD” for “mellitus.”
# Neopterin = Neopterin decreasing property in experimental diabetes; settings: H.G. animals, standard drug
# Method: as §1
# Hemoglobin = assay: Glycation of hemoglobin; settings: H.G. animals; standard drug
# Method: as §2, with “assessments. […] Aldose Reductase Activity and Glycation of Hemoglobin Following Test Formulation Treatment” for “assessments.”
# Creatinine, Urea = assay: Effect on renal function; settings: H.G. animals; standard drug
# Method: as §1, with “mellitus. Effect of Test Formulation on Renal Function” for “mellitus.”
# Cholesterol = assay: Anti-hyperlipidemic activity: cholesterol; settings: H.G. animals, standard drug
# Method: as §1
SMILES,Insulin (Insulin),"TBARS formation, Brain (TBARS)","TBARS formation, Heart (TBARS)","TBARS formation, Kidney (TBARS)","TBARS formation, Liver (TBARS)","TBARS formation, Pancrease (TBARS)",ACP [1],ALP [1],LDH [1],SGOT [1],SGPT [1],"Glycogen content, Liver (Glycogen)","Glycogen content, Skeletal muscle (Glycogen)","F,1-6 bisphosphate, Kidney (F,1-6 bisphosphate)","F,1-6 bisphosphate, Liver (F,1-6 bisphosphate)","G-6-P, Kidney (G-6-P)","G-6-P, Liver (G-6-P)","SOD, Brain (SOD)","SOD, Heart (SOD)","SOD, Kidney (SOD)",further results
CN(C)C(=N)N=C(N)N [Metformin],109.24 ± 12.13 pg/L,48.08 ± 3.42,62.33 ± 4.81,56.74 ± 5.07,80.83 ± 9.17,83.17 ± 7.24,12.05 ± 0.68 U/L,142.00 ± 6.00 U/L,145.11 ± 15.00 U/L,60.00 ± 5.00 U/L,24.25 ± 2.12 U/L,1095.03 ± 63.10 nM/Mg of Tissue,86.98 ± 12.80 nM/Mg of Tissue,29.67 ± 5.60 μm/min/mg of protein,34.59 ± 4.90 μm/min/mg of protein,41.85 ± 7.71 μm/min/mg of protein,57.49 ± 8.17 μm/min/mg of protein,19.83 ± 3.56,14.33 ± 5.13,16.00 ± 2.37,"SOD, Liver (SOD): 15.33 ± 0.86; SOD, Pancrease (SOD): 7.01 ± 0.46; Neopterin (Neopterin; 7th day): 8.90 ± 1.87 nmol/L; Neopterin (Neopterin; 14th Day): 9.11 ± 1.39 nmol/L; Glycated Hb (Hemoglobin): 0.44 ± 0.04 mg/g of Hb; Hb (Hemoglobin): 10.06 ± 0.06 g/dL; Creatinine (Creatinine, Urea): 3.18 ± 0.05 mg/dL; Urea (Creatinine, Urea): 45.45 ± 5.25 mg/dL; Cholesterol (Cholesterol; 0 days): 110.33 ± 9.55 mg/dL; Cholesterol (Cholesterol; 7th day): 100.00 ± 5.63 mg/dL; Cholesterol (Cholesterol; 14th Day): 88.17 ± 4.79 mg/dL"
CCc1ccc(CCOc2ccc(CC3SC(=O)NC3=O)cc2)nc1 (centres unmarked) [Pioglitazone],105.31 ± 9.10 pg/L,52.66 ± 3.55,61.83 ± 4.52,56.33 ± 7.93,82.50 ± 2.84,87.67 ± 7.41,11.95 ± 1.00 U/L,139.50 ± 3.15 U/L,160.00 ± 15.00 U/L,72.00 ± 5.71 U/L,27.00 ± 3.00 U/L,975.00 ± 43.14 nM/Mg of Tissue,42.02 ± 7.26 nM/Mg of Tissue,31.78 ± 3.71 μm/min/mg of protein,44.33 ± 4.29 μm/min/mg of protein,45.08 ± 4.76 μm/min/mg of protein,68.56 ± 7.51 μm/min/mg of protein,19.33 ± 3.66,15.83 ± 5.83,16.67 ± 1.86,"SOD, Liver (SOD): 13.50 ± 1.76; SOD, Pancrease (SOD): 6.91 ± 0.22; Neopterin (Neopterin; 7th day): 9.13 ± 2.10 nmol/L; Neopterin (Neopterin; 14th Day): 8.02 ± 2.01 nmol/L; Glycated Hb (Hemoglobin): 0.53 ± 0.07 mg/g of Hb; Hb (Hemoglobin): 10.09 ± 1.85 g/dL; Creatinine (Creatinine, Urea): 3.20 ± 0.09 mg/dL; Urea (Creatinine, Urea): 48.00 ± 2.00 mg/dL; Cholesterol (Cholesterol; 0 days): 112.33 ± 7.50 mg/dL; Cholesterol (Cholesterol; 7th day): 94.23 ± 8.23 mg/dL; Cholesterol (Cholesterol; 14th Day): 81.41 ± 9.94 mg/dL"
